System: German cockroaches (Blattlla germanica)
Experiment: Spray test on German cockroaches in glass box (Test example 1)
Format: in vivo
Conditions: 4.2 ml sprayed, 10 min exposure, observed 4 days thereafter
Description: Two grams (2 g) of each of Indoxacarb MP and Imiprothrin are mixed with 98 g of a mixture of xylene/Sorpol SM200X (surfactant produced by Toho Chemical)=85/15 to give each formulation of Indoxacarb MP and Imiprothrin. The formulations for the following tests are produced by mixing the Indoxacarb MP formulation with the Imiprothrin formulation at the designated ratio. The formulations for the tests are diluted with water to the designated concentration to give the preparations for the test.
Into the glass box, 4.2 ml of the preparation obtained above were sprayed with a spray gun. Ten minutes after spraying, the cockroaches were transferred to a plastic container and were provided with food and water. The mortality of the cockroaches was observed 4 days thereafter.

Compound | Mortality (%) (concentration of the preparation 0.5 % by weight) | Mortality (%) (concentration of the preparation 0.4 % by weight)
COC(=O)N(C(=O)N1COC2(C(=O)OC)Cc3cc(Cl)ccc3C2=N1)c1ccc(OC(F)(F)F)cc1 (racemic) [Indoxacarb MP, methyl (RS)-7-chloro-2,5-dihydro-2-[[(methoxycarbonyl)[4-(trifluoromethoxy)phenyl]amino]carbornyl]indeno[1,2-e][1,3,4]oxadiazine-4a(3H)-carboxylate] | 25 | –
C#CCN1CC(=O)N(COC(=O)C2C(C=C(C)C)C2(C)C)C1=O (mixture of isomers) [Imiprothrin, 2,5-dioxo-3-prop-2-ynylimidazolidin-1-ylmethyl (1R)-trans,cis-2,2-dimethyl-3-(2-methylprop-1-enyl)cyclopropanecarboxylate] | – | 0
